# Patent US6737383B1, “Herbicidal oxadiazolidines” (priority 1999, dated 2004)
# Assays:
# bedstraw = assay: Test B pre/postemergence bedstraw; type: in vivo, Galium aparine
# Outline: (§1)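 Response is a visual 0-to-10 score relative to untreated plants, where 0 means no effect and 10 means complete control, taken twelve to sixteen days after application. Treatments went onto soil at planting and onto foliage of 1- to 4-leaf plants, using a surfactant-containing non-phytotoxic solvent.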
# blackgrass = assay: Test B pre/postemergence blackgrass; type: in vivo, Alopecurus myosuroides
# Outline: as §1
# surinam grass = assay: Test B pre/postemergence surinam grass; type: in vivo, Brachiaria decumbens
# Outline: as §1
# corn = assay: Test B pre/postemergence corn; type: in vivo, Zea mays
# Outline: as §1
# crabgrass = assay: Test B pre/postemergence crabgrass; type: in vivo, Digitaria sanguinalis
# Outline: as §1
# giant foxtail = assay: Test B pre/postemergence giant foxtail; type: in vivo, Setaria faberii
# Outline: as §1
# morningglory = assay: Test B pre/postemergence morningglory; type: in vivo, Ipomoea hederacea
# Outline: as §1
# pigweed = assay: Test B pre/postemergence pigweed; type: in vivo, Amaranthus retroflexus
# Outline: as §1
# rape = assay: Test B pre/postemergence rape; type: in vivo, Brassica napus
# Outline: as §1
# soybean = assay: Test B pre/postemergence soybean; type: in vivo, Glycine max
# Outline: as §1
# velvetleaf = assay: Test B pre/postemergence velvetleaf; type: in vivo, Abutilon theophrasti
# Outline: as §1
# wheat = assay: Test B pre/postemergence wheat; type: in vivo, Triticum aestivum
# Outline: as §1
# wild oat = assay: Test B pre/postemergence wild oat; type: in vivo, Avena fatua
# Outline: as §1
# purple nutsedge = assay: Test B pre/postemergence purple nutsedge; type: in vivo, Cyperus rotundus
# Outline: as §1
# rice = assay: Test B flood test rice; type: in vivo, Oryza sativa
# Outline: (§2)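 Flood test on plants grown to the 2-leaf stage; treated plants kept in greenhouse twelve to sixteen days, then visually rated against controls on a 0 (no effect) to 10 (complete control) scale.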
# duck salad = assay: Test B flood test duck salad; type: in vivo, Heteranthera limosa
# Outline: as §2
# [1] = Preemergence, Rate 62 g/ha, scale of 0 to 10 where 0 is no effect and 10 is complete control
# [2] = Preemergence, Rate 250 g/ha, scale of 0 to 10 where 0 is no effect and 10 is complete control
# [3] = Preemergence, Rate 500 g/ha, scale of 0 to 10 where 0 is no effect and 10 is complete control
# [4] = Rate 62 g/ha, Postemergence, scale of 0 to 10 where 0 is no effect and 10 is complete control
# [5] = Rate 125 g/ha, Postemergence, scale 0 to 10
# [6] = Rate 125 g/ha, Preemergence, scale of 0 to 10 where 0 is no effect and 10 is complete control
# [7] = Rate 500 g/ha, Postemergence, scale 0 to 10, 0 no effect, 10 complete control
# [8] = Rate 62 g/ha, headed Pre-emergence (flood test species), scale 0 to 10 (0 no effect, 10 complete control)
# [9] = Rate 125 g/ha, Pre-emergence, flood test species, scale 0 to 10 where 0 is no effect and 10 is complete control
# [10] = Rate 250 g/ha, Pre-emergence, flood-test species, scale 0 to 10, 0 is no effect, 10 is complete control
# [11] = Rate 500 g/ha, Pre-emergence, flood test species, scale 0 to 10 (0 no effect, 10 complete control)
compound,measurement,setting,value
CC(C)N(C(=O)n1oc(=O)n(C2CC2)c1=O)c1ccc(F)cc1 [Compound 242],Bedstraw plant response rating,bedstraw; [1],0
same,Bedstraw plant response rating,bedstraw; [2],9
same,"Plant response rating, Bedstraw",bedstraw; [3],10
same,Bedstraw plant response rating,bedstraw; [4],2
same,Bedstraw plant response rating,bedstraw; [5],5
same,Bedstraw plant response rating,bedstraw; [6],7
same,"Plant response rating (0 to 10; 0 is no effect, 10 is complete control), Bedstraw","bedstraw; Rate 250 g/ha, Postemergence",7
same,Bedstraw plant response rating,bedstraw; [7],8
same,Blackgrass plant response rating,blackgrass; [1],9
same,Blackgrass plant response rating,blackgrass; [2],10
same,"Plant response rating, Blackgrass",blackgrass; [3],10
same,Blackgrass plant response rating,blackgrass; [4],8
same,Blackgrass plant response rating,blackgrass; [5],9
same,Blackgrass plant response rating,blackgrass; [6],10
same,"Plant response rating (0 to 10; 0 is no effect, 10 is complete control), Blackgrass","blackgrass; Rate 250 g/ha, Postemergence",9
same,Blackgrass plant response rating,blackgrass; [7],9
same,B. signalgrass plant response rating,surinam grass; [1],6
same,B. signalgrass plant response rating,surinam grass; [2],9
same,"Plant response rating, B. signalgrass",surinam grass; [3],10
same,B. signalgrass plant response rating,surinam grass; [4],1
same,B. signalgrass plant response rating,"surinam grass; Rate 125 g/ha, Postemergence, scale 0 (no effect) to 10 (complete control)",8
same,B. signalgrass plant response rating,surinam grass; [6],9
same,"Plant response rating (0 to 10; 0 is no effect, 10 is complete control), B. signalgrass","surinam grass; Rate 250 g/ha, Postemergence",8
same,B. signalgrass plant response rating,surinam grass; [7],9
same,Corn plant response rating,corn; [1],0
same,Corn plant response rating,corn; [2],6
same,"Plant response rating, Corn",corn; [3],9
same,Corn plant response rating,corn; [4],0
same,Corn plant response rating,corn; [6],0
same,"Plant response rating (0 to 10; 0 is no effect, 10 is complete control), Corn","corn; Rate 250 g/ha, Postemergence",0
same,Corn plant response rating,corn; [7],6
same,Crabgrass plant response rating,crabgrass; [1],9
same,Crabgrass plant response rating,crabgrass; [2],10
same,"Plant response rating, Crabgrass",crabgrass; [3],10
same,Crabgrass plant response rating,crabgrass; [4],8
same,Crabgrass plant response rating,crabgrass; [6],10
same,"Plant response rating (0 to 10; 0 is no effect, 10 is complete control), Crabgrass","crabgrass; Rate 250 g/ha, Postemergence",9
same,Crabgrass plant response rating,crabgrass; [7],9
same,Giant foxtail plant response rating,giant foxtail; [1],10
same,Giant foxtail plant response rating,giant foxtail; [2],10
same,"Plant response rating, Giant foxtail",giant foxtail; [3],10
same,Giant foxtail plant response rating,giant foxtail; [4],7
same,Giant foxtail plant response rating,giant foxtail; [6],10
same,"Plant response rating (0 to 10; 0 is no effect, 10 is complete control), Giant foxtail","giant foxtail; Rate 250 g/ha, Postemergence",8
same,Giant foxtail plant response rating,giant foxtail; [7],9
same,Morningglory plant response rating,morningglory; [1],2
same,Morningglory plant response rating,morningglory; [2],5
same,"Plant response rating, Morningglory",morningglory; [3],10
same,Morningglory plant response rating,morningglory; [4],0
same,Morningglory plant response rating,morningglory; [6],2
same,"Plant response rating (0 to 10; 0 is no effect, 10 is complete control), Morningglory","morningglory; Rate 250 g/ha, Postemergence",7
same,Morningglory plant response rating,morningglory; [7],8
same,Redroot pigweed plant response rating,pigweed; [1],9
same,Redroot pigweed plant response rating,pigweed; [2],10
same,"Plant response rating, Redroot pigweed",pigweed; [3],10
same,Redroot pigweed plant response rating,pigweed; [4],0
same,Redroot pigweed plant response rating,pigweed; [6],10
same,"Plant response rating (0 to 10; 0 is no effect, 10 is complete control), Redroot pigweed","pigweed; Rate 250 g/ha, Postemergence",4
same,Redroot pigweed plant response rating,pigweed; [7],8
same,Rape plant response rating,rape; [1],0
same,Rape plant response rating,rape; [2],10
same,"Plant response rating, Rape",rape; [3],10
same,Rape plant response rating,rape; [4],0
same,Rape plant response rating,rape; [6],6
same,"Plant response rating (0 to 10; 0 is no effect, 10 is complete control), Rape","rape; Rate 250 g/ha, Postemergence",4
same,Rape plant response rating,rape; [7],8
same,Soybean plant response rating,soybean; [1],0
same,Soybean plant response rating,soybean; [2],6
same,"Plant response rating, Soybean",soybean; [3],7
same,Soybean plant response rating,soybean; [4],4
same,Soybean plant response rating,soybean; [6],2
same,Soybean plant response rating,soybean; [7],6
same,Velvetleaf plant response rating,velvetleaf; [1],6
same,Velvetleaf plant response rating,velvetleaf; [2],8
same,"Plant response rating, Velvetleaf",velvetleaf; [3],10
same,Velvetleaf plant response rating,velvetleaf; [4],3
same,Velvetleaf plant response rating,velvetleaf; [6],8
same,Velvetleaf plant response rating,velvetleaf; [7],7
same,Wheat plant response rating,wheat; [1],5
same,Wheat plant response rating,wheat; [2],9
same,"Plant response rating, Wheat",wheat; [3],10
same,Wheat plant response rating,wheat; [4],4
same,Wheat plant response rating,wheat; [6],7
same,Wheat plant response rating,wheat; [7],8
same,Wild oats plant response rating,wild oat; [1],7
same,Wild oats plant response rating,wild oat; [2],9
same,"Plant response rating, Wild oats",wild oat; [3],10
same,Wild oats plant response rating,wild oat; [4],0
same,Wild oats plant response rating,wild oat; [6],9
same,Wild oats plant response rating,wild oat; [7],8
same,Nutsedge plant response rating,purple nutsedge; [1],10
same,Nutsedge plant response rating,purple nutsedge; [2],10
same,"Plant response rating, Nutsedge",purple nutsedge; [3],10
same,Nutsedge plant response rating,purple nutsedge; [4],0
same,Nutsedge plant response rating,purple nutsedge; [6],10
same,Nutsedge plant response rating,purple nutsedge; [7],5
same,Rice plant response rating,rice; [8],0
same,Rice plant response rating,rice; [9],0
same,Rice plant response rating,rice; [10],0
same,Rice plant response rating,rice; [11],0
same,Ducksalad plant response rating,duck salad; [8],0
same,Ducksalad plant response rating,duck salad; [9],0
same,Ducksalad plant response rating,duck salad; [10],0
same,Ducksalad plant response rating,duck salad; [11],0
